The values below are quoted from earlier work in patent US8263578B2, “Stable bortezomib formulations” (InnoPharma, Inc., priority 2010, dated 2012).

Like-named read-outs stand apart in the source and are kept apart here.

The conditions of this series: 25° C.

On to `CC(C)C[C@H](NC(=O)[C@H](Cc1ccccc1)NC(=O)c1cnccn1)B(O)O` [Bortezomib, N-(2-pyrazine) carbonyl-L-phenylalanine-L-leucine boronic acid], for which the degraded (0.5 mg/mL in ethanol:normal saline solution (2:98, pH 2.8), 1 month) was 20% and the degraded (propylene glycol:ethanol:water (50:10:40), 8 months) is 20%.
